Data taken from patent publication US8476036B2, “Nonluminogenic assay for living cells” (Promega Corporation, priority 2004, dated 2013).
Marks after values point to notes of the source that are not given here. Numbered stars: 1 amine (or outer) side, 2 acyl side, 3 side chain; on linkers, the order of the positions; unused ones are H or OH. Square brackets hold non-standard residues; d marks the D form. Peptide text beside a SMILES is read from it. * marks the point of attachment. AFC = O=c1cc(C(F)(F)F)c2ccc(N*)cc2o1; Glutaryl = O=C(CCCC(=O)[*:2])[*:1]; AMC = Cc1cc(=O)oc2cc(N*)ccc12; Suc = O=C(CCC(=O)[*:2])[*:1]; Cbz = O=C(OCc1ccccc1)*

Key:
Type in all cases: cell-based
[1] = tested on: HL-60 or Jurkat; assay: Protease retention substrate selectivity, untreated viable cells; set-up: key: None denotes no statistical activity above control population.; (+) to (+++++) denotes the range of activity above control population from modest to robust; (+) to (+++++) denotes the range of activity above control population from modest to robust; (+) to (+++++) denotes the range of activity above control population from modest to robust; (+) to (+++++) denotes the range of activity above control population from modest to robust; (+) to (+++++) denotes the range of activity above control population from modest to robust; details: substrate cleavage activity above control in untreated viable cells; 15-30 minutes at 37° C.
From the text: (§1) Ala-Ala-Phe-AMC was obtained from Promega. Z-Leu-Leu-Val-Tyr-aminoluciferin (LLVY corresponds to SEQ ID NO:18), Z-Leu-Arg-aminoluciferin, Z-Phe-Arg-aminoluciferin, Ala-Ala-Phe-aminoluciferin, (Ala-Ala-Phe)2-R110, and (Gly-Phe)2-R110 were synthesized by Promega Biosciences. Suc-Ala-Ala-Phe-AMC, H-Phe-AMC, H-Tyr-AMC, Glutyl-Ala-Ala-Phe-AMC (EMF corresponds to SEQ ID NO:32), H-Gly-Phe-AMC, Z-Gly-Ala-Met-AMC, Suc-Leu-Leu-Val-Tyr-AMC (LLVY corresponds to SEQ ID NO:18), D-Ala-Leu-Lys-AMC, H-Gly-Ala-AMC, H-Gly-Gly-AMC, Suc-Ala-Ala-Phe-AMC, Z-Arg-Leu-Arg-Gly-Gly-AMC (RLRGG corresponds to SEQ ID NO:29), Z-Leu-Arg-Gly-Gly-AMC (LRGG corresponds to SEQ ID NO:30) and Ac-Ala-Ala-Tyr-AMC were sourced from Bachem. Gly-Phe-AFC, Pro-Phe-Arg-AMC, Gly-Gly-Leu-AMC, and Ser-Tyr-AFC were obtained from Calbiochem. Z-Phe-Arg-AMC and Suc-Arg-Pro-Phe-His-Leu-Leu-Val-Tyr-AMC (RPHLLVY corresponds to SEQ ID NO:31) were purchased from Sigma.
(§2) All substrates were solubilized in DMSO from 10 to 100 mM depending upon inherent solubility. Fluorescent substrates were diluted to 100 μM to 1 mM in 10 mM Hepes, pH 7.5 or matched cell culture medium with 10% serum and added in 1/10th volumes to lysed (freeze fractured, sonicated, or detergent) or untreated viable cells in white-walled, clear bottomed 96-well plates. HL-60 or Jurkat were used in the experimentation interchangeably because of their easily manipulated suspension phenotype. Plates were incubated for 15-30 minutes at 37° C. prior to measuring fluorescence by the CYTOFLUOR® II.
(§3) Luminescent substrates were added to a luciferin detection cake (Promega V859A) resuspended in 2 ml 10 mM Hepes, pH 7.5 to 500 μM. ⅕^th volume of the proluminescent reaction mixes were added to lysed (freeze fractured, sonicated, or detergent) or untreated viable cells in white-walled, clear bottomed 96-well plates. Again, HL-60 or Jurkat were used in the experimentation interchangeably. Plates were incubated at 37° C. in a MeCour' circulating heat block controlled by a Caron 2050W exchange unit. Luminescence was measured between 15 and 30 minutes (signal steady state).
(§4) A broad variety of proteolytic substrates were examined in an effort to characterize potential substrate preferences for protease release or retention in compromised or viable cells (see Table 4). […] Non-blocked substrates (H- and the like) were examined to include the contribution of aminopeptidase activities. From this panel, at least three proteolytic profiles emerged: an aminopeptidase-like activity preferring unblocked Ala-Ala-Phe tripeptide, a proteosomal (chymotrypsin-like) activity measured by release of blocked Leu-Leu-Val-Tyr (SEQ ID NO:18) peptides, and an exceedingly labile activity by Gly-Phe, Gly-Ala, Phe-, Tyr- or Gly-Gly-Leu substrates. The latter activities were only measurable in viable, intact cells. Of further significance is that several fluorophores or proluminescent labels can be used to detect these activities, ultimately allowing for enhanced downstream multiplexing flexibility.

[2] = tested on: HL-60 or Jurkat; assay: Protease release substrate selectivity, lysed (freeze fractured, sonicated, or detergent) cells; set-up: key: None denotes no statistical activity above control population.; (+) to (+++++) denotes the range of activity above control population from modest to robust; (+) to (+++++) denotes the range of activity above control population from modest to robust; (+) to (+++++) denotes the range of activity above control population from modest to robust; (+) to (+++++) denotes the range of activity above control population from modest to robust; (+) to (+++++) denotes the range of activity above control population from modest to robust; details: substrate cleavage activity above control in lysed cells; 15-30 minutes at 37° C.
From the text: as §1, §2, §3, §4

[3] = tested on: SK-MEL-28 cells; assay: Live cell protease retention multiplexed with caspase 3/7 activity, SK-MEL-28; details: SK-MEL-28, serial dilutions, 5 hours
Procedure: SK-MEL-28 or ACHN cells were seeded into white-walled, clear bottomed 96 well plates at a density of 10,000 cells per well in 100 μl volumes and allowed to attach at 37° C. in 5% CO2 for a period of 2 hours. After attachment, 50 μl of medium was carefully removed and replaced with serial dilutions of either ionomycin or staurosporine in MEM+10% FBS. Medium only served as control. The plate was incubated for an additional 5 hours. A 1 mM solution of Gly-Phe-AFC was made in MEM and added to the wells in a 1/10th volume. Resulting fluorescence was measured using a CYTOFLUOR® II. Caspase-GIo™ 3/7 reagent was then added and luminescence measure using a BMG FLUOstar Optima.

| Molecule | Retention [1] | Release [2] | Cytotoxicity profile (live cell fluorescence and caspase 3/7 activity) [3] |
| --- | --- | --- | --- |
| CC(N)C(=O)NC(C)C(=O)NC(Cc1ccccc1)C(=O)Nc1ccc2c(c1)Oc1cc(NC(=O)C(Cc3ccccc3)NC(=O)C(C)NC(=O)C(C)N)ccc1C21OC(=O)c2ccccc21 (stereo not drawn) [(Ala-Ala-Phe) 2 R110, (Ala-Ala-Phe)2-R110] | None | +++++ | – |
| CC(=O)NC(C)C(=O)NC(C)C(=O)NC(Cc1ccc(O)cc1)C(=O)Nc1ccc2c(C)cc(=O)oc2c1 (stereo not drawn) [Ac-Ala-Ala-Tyr-AMC] (Ac-Ala-Ala-Tyr-{AMC}; configuration not given here) | None | None | – |
| Cc1cc(=O)oc2cc(NC(=O)C(Cc3ccccc3)NC(=O)C(C)NC(=O)C(C)N)ccc12 (stereo not drawn) [Ala-Ala-Phe-AMC] (H-Ala-Ala-Phe-{AMC}; configuration not given here) | None | +++++ | – |
| CC(N)C(=O)NC(C)C(=O)NC(Cc1ccccc1)C(=O)Nc1ccc2nc(C3=NC(C(=O)O)CS3)sc2c1 (stereo not drawn) [Ala-Ala-Phe-Aminoluc, Ala-Ala-Phe-aminoluciferin] | None | +++++ | – |
| Cc1cc(=O)oc2cc(NC(=O)[C@H](Cc3ccccc3)NC(=O)[C@H](C)NC(=O)[C@H](C)NC(=O)CCCC(=O)O)ccc12 [Gluty-Ala-Ala-Phe-AMC, Glutyl-Ala-Ala-Phe-AMC] (Glutaryl-Ala-Ala-Phe-{AMC}) | None | None | – |
| NCC(=O)N[C@@H](Cc1ccccc1)C(=O)Nc1ccc2c(C(F)(F)F)cc(=O)oc2c1 [Gly-Phe-AFC] (H-Gly-Phe-{AFC}) | +++++ | None | – |
| Cc1cc(=O)oc2cc(NC(=O)[C@H](Cc3ccccc3)NC(=O)CN)ccc12 [Gly-Phe-AMC, H-Gly-Phe-AMC] (H-Gly-Phe-{AMC}) | ++ | None | – |
| Cc1cc(=O)oc2cc(NC(=O)[C@H](CCCCN)NC(=O)[C@H](CC(C)C)NC(=O)[C@@H](C)N)ccc12 [H-D-Ala-Leu-Lys-AMC] (H-[dA]-Leu-Lys-{AMC}) | None | None | – |
| Cc1cc(=O)oc2cc(NC(=O)C(C)NC(=O)CN)ccc12 (stereo not drawn) [H-Gly-Ala-AMC] | ++ | None | – |
| Cc1cc(=O)oc2cc(NC(=O)CNC(=O)CN)ccc12 [H-Gly-Gly-AMC] (H-Gly-Gly-{AMC}) | None | None | – |
| Cc1cc(=O)oc2cc(NC(=O)[C@@H](N)Cc3ccccc3)ccc12 [H-Phe-AMC] | +++ | None | – |
| Cc1cc(=O)oc2cc(NC(=O)[C@H](CCCN=C(N)N)NC(=O)[C@H](Cc3ccccc3)NC(=O)[C@@H]3CCCN3)ccc12 [H-Pro-Phe-Arg-AMC] (H-Pro-Phe-Arg-{AMC}) | None | None | – |
| Cc1cc(=O)oc2cc(NC(=O)[C@@H](N)Cc3ccc(O)cc3)ccc12 [H-Tyr-AMC] | ++ | None | – |
| N[C@@H](CO)C(=O)N[C@@H](Cc1ccc(O)cc1)C(=O)Nc1ccc2c(C(F)(F)F)cc(=O)oc2c1 [Ser-Tyr-AFC] (H-Ser-Tyr-{AFC}) | None | None | – |
| Cc1cc(=O)oc2cc(NC(=O)[C@H](Cc3ccccc3)NC(=O)[C@H](C)NC(=O)[C@H](C)NC(=O)CCC(=O)O)ccc12 [Suc-Ala-Ala-Phe-AMC] (Suc-Ala-Ala-Phe-{AMC}) | None | None | – |
| Cc1cc(=O)oc2cc(NC(=O)[C@H](Cc3ccc(O)cc3)NC(=O)[C@@H](NC(=O)[C@H](CC(C)C)NC(=O)[C@H](CC(C)C)NC(=O)CCC(=O)O)C(C)C)ccc12 [Suc-Leu-Leu-Val-Tyr-AMC] (Suc-LLVY-{AMC}) | None | + | – |
| Cc1cc(=O)oc2cc(NC(=O)CNC(=O)CNC(=O)[C@H](CCCN=C(N)N)NC(=O)[C@H](CC(C)C)NC(=O)[C@H](CCCN=C(N)N)NC(=O)OCc3ccccc3)ccc12 [Z-Arg-Leu-Arg-Gly-Gly-AMC] | None | None | – |
| CSCC[C@H](NC(=O)[C@H](C)NC(=O)CNC(=O)OCc1ccccc1)C(=O)Nc1ccc2c(C)cc(=O)oc2c1 [Z-Gly-Ala-Met-AMC] (Cbz-Gly-Ala-Met-{AMC}) | None | None | – |
| Cc1cc(=O)oc2cc(NC(=O)[C@H](CC(C)C)NC(=O)CNC(=O)CNC(=O)OCc3ccccc3)ccc12 [Z-Gly-Gly-Leu-AMC] (Cbz-Gly-Gly-Leu-{AMC}) | ++* | None | – |
| CC(C)C[C@H](NC(=O)OCc1ccccc1)C(=O)N[C@@H](CCCNC(=N)N)C(=O)Nc1ccc2nc(C3=N[C@@H](C(=O)O)CS3)sc2c1 [Z-Leu-Arg-Aluc, Z-Leu-Arg-aminoluciferin] | None | None | – |
| Cc1cc(=O)oc2cc(NC(=O)CNC(=O)CNC(=O)[C@H](CCCN=C(N)N)NC(=O)[C@H](CC(C)C)NC(=O)OCc3ccccc3)ccc12 [Z-Leu-Arg-Gly-Gly-AMC] (Cbz-LRGG-{AMC}) | None | None | – |
| Cc1cc(=O)oc2cc(NC(=O)C(CCCN=C(N)N)NC(=O)C(Cc3ccccc3)NC(=O)OCc3ccccc3)ccc12 (stereo not drawn) [Z-Phe-Arg-AMC] (Cbz-Phe-Arg-{AMC}; configuration not given here) | None^1 | None | – |
| N=C(N)NCCCC(NC(=O)C(Cc1ccccc1)NC(=O)OCc1ccccc1)C(=O)Nc1ccc2nc(C3=NC(C(=O)O)CS3)sc2c1 (stereo not drawn) [Z-Phe-Arg-Aluc, Z-Phe-Arg-aminoluciferin] | None | None | – |
| C[C@H](CCC(=O)O)C[C@H](C)C[C@H](C)C(=O)/C=C(\O)[C@H](C)C[C@H](C)C/C=C/[C@@H](C)[C@@H](O)[C@@H](C)[C@@H](O)C[C@@H]1CC[C@@](C)([C@H]2CC[C@@](C)([C@@H](C)O)O2)O1 [ionomycin] | – | – | necrotic-type profile |
| Suc-RPFHLLVY-{AMC} [S-R-P-F-H-L-L-V-Y-AMC] | None | None | – |
